pIC50: −log10 of the molar value. The source made the active and inactive calls. No cut-off for these calls is given here.
Experiments:
[1] = tested on: Plasmodium falciparum; assay: Antimalarial activity against chloroquine-resistant Plasmodium falciparum W2 infected in red blood cells after 72 hrs by Malstat reagent based LDH assay; type: functional, cell-based; details: W2, 72 h
[2] = Resistance index, ratio of IC50 for Plasmodium falciparum W2 infected in red blood cells to IC50 for Plasmodium falciparum D6 infected in red blood cells; type: functional
[3] = tested on: Vero; assay: Cytotoxicity against African green monkey Vero cells assessed as reduction in cell viability up to 10 uM after 48 hrs by neutral red assay; type: cell-based; details: chlorocebus sabaeus
[4] = Selectivity index, ratio of IC50 for African green monkey Vero cells to IC50 for chloroquine-sensitive Plasmodium falciparum D6 infected in red blood cells; type: toxicity, cell-based; details: read-out: Ratio IC50
[5] = Selectivity index, ratio of IC50 for African green monkey Vero cells to IC50 for chloroquine-resistant Plasmodium falciparum W2 infected in red blood cells; type: toxicity, cell-based; details: read-out: Ratio IC50
[6] = tested on: Plasmodium falciparum; assay: Antimalarial activity against chloroquine-sensitive Plasmodium falciparum D6 infected in red blood cells after 72 hrs by Malstat reagent based LDH assay; type: functional, cell-based; details: D6, 72 h
[7] = tested on: Plasmodium falciparum; assay: Antimalarial activity against chloroquine-resistant Plasmodium falciparum W2 infected in red blood cells up to 10 uM after 72 hrs by Malstat reagent based LDH assay; type: functional, cell-based
[8] = tested on: Heme; assay: Binding affinity to monomeric heme (unknown origin) assessed as mole fraction of compound required to show 1:1 stoichiometry for heme-compound complex at pH 5.6 to 7.4 by Job's plot method
[9] = tested on: Heme; assay: Binding affinity to monomeric heme (unknown origin) in DMSO/water solution up to 40 uM at pH 5.6 by titration-based UV-vis spectrophotometric analysis
[10] = tested on: mu-oxodimeric heme; assay: Binding affinity to mu-oxodimeric heme (unknown origin) in aqueous NaOH solution assessed as 1:1 stoichiometry for heme-compound complex at pH 5.8 by Job's plot method
[11] = tested on: mu-oxodimeric heme; assay: Binding affinity to mu-oxodimeric heme (unknown origin) in aqueous NaOH solution up to 15 uM at pH 5.8 by titration-based UV-vis spectrophotometric analysis

| SMILES | pIC50 [1] | Ratio IC50 [2] | Activity [3] | selectivity ratio [4] | selectivity ratio [5] | pIC50 [6] | Activity [7] | Activity (mole fraction) [8] | Activity [9] | Activity [10] | Activity [11] |
| --- | --- | --- | --- | --- | --- | --- | --- | --- | --- | --- | --- |
| Cc1cc(N(CCNc2ccnc3cc(Cl)ccc23)Cc2ccco2)nc(N2CCOCC2)n1 | 6.91 | 2.21 | Non-Toxic | > 182 | > 82 | 7.26 |  |  |  |  |  |
| Cc1cc(N2CCCC2)nc(N(CCCNc2ccnc3cc(Cl)ccc23)Cc2ccco2)n1 | 6.79 | 3.17 | Non-Toxic | > 196 | > 61.7 | 7.29 |  |  |  |  |  |
| CCN(CC)CCCC(C)Nc1ccnc2cc(Cl)ccc12 (stereo not drawn) [CHLOROQUINE] |  |  | Non-Toxic |  |  |  |  |  |  |  |  |
| CCN1CCN(c2nc(C)cc(N(CCCNc3ccnc4cc(Cl)ccc34)Cc3ccco3)n2)CC1 | 7.37 | 0.977 | Non-Toxic | > 222 | > 233 | 7.36 |  |  |  |  |  |
| Cc1cc(N(CCCNc2ccnc3cc(Cl)ccc23)Cc2ccco2)nc(N2CCCC2)n1 | 7.12 | 1.72 | Non-Toxic | > 222 | > 132 | 7.36 |  |  |  |  |  |
| Cc1cc(Cl)nc(N(CCNc2ccnc3cc(Cl)ccc23)Cc2ccco2)n1 | 7.21 | 0.775 | Non-Toxic | > 125 | > 161 | 7.10 |  |  |  |  |  |
| Cc1cc(N2CCCCC2)nc(N(CCCNc2ccnc3cc(Cl)ccc23)Cc2ccco2)n1 | 6.71 | 3.33 | Non-Toxic | > 169 | > 50.8 | 7.23 |  |  |  |  |  |
| Cc1cc(N(CCCNc2ccnc3cc(Cl)ccc23)Cc2ccco2)nc(N2CCOCC2)n1 | 6.59 | 5.58 | Non-Toxic | > 217 | > 38.9 | 7.34 |  |  |  |  |  |
| CCc1nc(N)nc(N)c1-c1ccc(Cl)cc1 [PYRIMETHAMINE] |  |  | Non-Toxic | > 1110 |  |  | inactive |  |  |  |  |
| Cc1cc(N(CCNc2ccnc3cc(Cl)ccc23)Cc2ccco2)nc(Cl)n1 | 7.12 | 1.17 | Non-Toxic | > 156 | > 133 | 7.19 |  |  |  |  |  |
| CCN1CCN(c2cc(C)nc(N(CCCNc3ccnc4cc(Cl)ccc34)Cc3ccco3)n2)CC1 | 7.41 | 0.975 | Non-Toxic | > 250 | > 256 | 7.40 |  |  |  |  |  |
| Cc1cc(N2CCOCC2)nc(N(CCCNc2ccnc3cc(Cl)ccc23)Cc2ccco2)n1 | 6.78 | 3.15 | Non-Toxic | > 189 | > 59.9 | 7.28 |  |  |  |  |  |
| Cc1cc(N(CCCNc2ccnc3cc(Cl)ccc23)Cc2ccco2)nc(N2CCCCC2)n1 | 7.14 | 1.67 | Non-Toxic | > 233 | > 139 | 7.37 |  |  |  |  |  |
| Cc1cc(N(CCNc2ccnc3cc(Cl)ccc23)Cc2ccco2)nc(N2CCCCC2)n1 | 6.70 | 3.26 | Non-Toxic | > 164 | > 50.2 | 7.21 |  |  |  |  |  |
| Cc1cc(N2CCOCC2)nc(N(CCNc2ccnc3cc(Cl)ccc23)Cc2ccco2)n1 | 7.20 | 1.46 | Non-Toxic | > 233 | > 159 | 7.37 |  |  |  |  |  |
| Cc1cc(N2CCN(C)CC2)nc(N(CCCNc2ccnc3cc(Cl)ccc23)Cc2ccco2)n1 | 7.32 | 0.979 | Non-Toxic | > 204 | > 208 | 7.31 |  |  |  |  |  |
| Cc1cc(N2CCCC2)nc(N(CCNc2ccnc3cc(Cl)ccc23)Cc2ccco2)n1 | 6.71 | 3.23 | Non-Toxic | > 167 | > 51.5 | 7.22 |  |  |  |  |  |
| C[C@@H]1CC[C@H]2[C@@H](C)C(=O)O[C@@H]3O[C@@]4(C)CC[C@@H]1[C@]32OO4 [ARTEMISININ] | 7.64 | 0.511 | Non-Toxic | > 222 | 435 | 7.35 |  |  |  |  |  |
| Cc1cc(N2CCCCC2)nc(N(CCNc2ccnc3cc(Cl)ccc23)Cc2ccco2)n1 | 6.69 | 4.63 | Non-Toxic | > 222 | > 49 | 7.36 |  |  |  |  |  |
| Cc1cc(N(CCNc2ccnc3cc(Cl)ccc23)Cc2ccco2)nc(N2CCCC2)n1 | 6.79 | 3.26 | Non-Toxic | > 200 | > 61.3 | 7.30 |  |  |  |  |  |
| Cc1cc(N(CCNc2ccnc3cc(Cl)ccc23)Cc2ccco2)nc(N2CCN(C)CC2)n1 | 7.39 | 1 | Non-Toxic | > 244 | > 244 | 7.39 |  |  |  |  |  |
| CCN1CCN(c2cc(C)nc(N(CCNc3ccnc4cc(Cl)ccc34)Cc3ccco3)n2)CC1 | 7.33 | 1.11 | Non-Toxic | > 238 | > 213 | 7.38 |  |  |  |  |  |
| Cc1cc(Cl)nc(N(CCCNc2ccnc3cc(Cl)ccc23)Cc2ccco2)n1 | 6.30 | 1.5 | Non-Toxic | > 29.7 | > 19.8 | 6.47 |  |  |  |  |  |
| Cc1cc(N(CCCNc2ccnc3cc(Cl)ccc23)Cc2ccco2)nc(N2CCN(C)CC2)n1 | 7.33 | 1.04 | Non-Toxic | > 206 | > 213 | 7.35 |  |  |  |  |  |
| Cc1cc(N2CCN(C)CC2)nc(N(CCNc2ccnc3cc(Cl)ccc23)Cc2ccco2)n1 | 7.38 | 1 | Non-Toxic | > 238 | > 238 | 7.38 |  |  |  |  |  |
| CCN1CCN(c2nc(C)cc(N(CCNc3ccnc4cc(Cl)ccc34)Cc3ccco3)n2)CC1 | 7.40 | 1.05 | Non-Toxic | > 263 | > 250 | 7.42 |  | 0.5 | Active | Active | Active |
| Cc1cc(N(CCCNc2ccnc3cc(Cl)ccc23)Cc2ccco2)nc(Cl)n1 | 6.34 | 4.2 | Non-Toxic | > 92.6 | > 22 | 6.97 |  |  |  |  |  |

From ChEMBL document CHEMBL4004859, “Synthesis, antimalarial activity, heme binding and docking studies of N-substituted 4-aminoquinoline-pyrimidine molecular hybrids” (Eur J Med Chem, 2017)
